Source: patent US20260297165A1, “COMPOSITIONS AND METHODS FOR EXPRESSING THERAPEUTICS” (priority 2023, published 2026)

Key:
Hep1c1c7 cells = test: Cell lysis inhibition assay (normal human serum, WST-8); assay type: cell-based; details: NHS dose causing 70% cell lysis
Description: To test biological function of sCD59, cell lysis inhibition assay was performed using Hep1c1c7 cells. The serum dose causing approximately 70% cell lysis was determined for the new normal human serum (NHS) before the purified sCD59 proteins were used for cell lysis inhibition assay. Three hours prior to the experiment, 1×10^4 cells per well were seeded onto a 96-well plate. Various doses of NHS were mixed with GVB2++ buffer (with Ca^2+ and Mg^2+) (Complement Technology, Cat. B100). 100 μL of mixture was added to each well. Background lysis was measured using GVB2++ buffer only and maximum lysis was measured by lysing all the cells with Maximum Lysis Buffer (GVB2++ plus 1% SDS). […] The absorbance at 450 nm was measured using a microplate reader. To calculate the percentage of live cells, the absorbance was subtracted by the Max Lysis, divided by Background Lysis minus Max Lysis and multiplied by 100, which equaled the % of live cells. The % of dead cells was calculated by subtracting 100 by the % of live cells. In the GraphPad Prism, the % of cell death was plotted against dose of NHS, and the dose of NHS causing 50% and 70% hemolysis was respectively determined (FIG. 15A). […]
To test biological function of vsCD59, cell lysis inhibition assay is performed using Hep1c1c7 cells. […] The absorbance at 450 nm is measured using a microplate reader. […]

C3b = C3b (Homo sapiens, UniProt P01024); test: Binding affinity to C3b by Biacore
Description: (§1) The estimated IC50 of the C3i fusion proteins were measured as shown above. Next their binding affinity with Complement C3b, C3c, and C3 was tested. Binding affinity was measured using Biacore. Biosensor analysis was performed at room temperature in a running buffer (1×HBS, 20 mM NaH2PO4-Na2HPO4·H2O, 150 mM NaCl, pH 7.4, supplemented with 0.005% (v/v) surfactant P20), using a Biacore 3000 optical biosensor equipped with a research-grade CM5 sensor chip. C3, C3b and C3c proteins were immobilized in flow cell 2 or 4 via standard amine coupling, leaving Fc1 or 3 unmodified to serve as a reference surface. The immobilization levels of proteins were calculated using Rmax=100 RU and the ratio of ligand molecular weight/analyte molecular. Data analysis was conducted using the BIAevaluation software. All sensorgrams were double-referenced by subtracting the response on a reference flow cell and a blank sample. Five 2× serial dilution samples were injected sequentially from low concentration to high concentration of proteins at a flow rate of 30 μL/min (300 seconds for each), followed by a dissociation time of 900 seconds. Calculations of kinetic parameters were conducted assuming a simple 1:1 (Langmuir) binding.
(§2) After the testing concentrating was optimized for individual proteins, they were applied on the immobilized chip, and association rate constant (Ka, M^−1s^−1), dissociation constant (Kd, s^−1), equilibrium dissociation constant (KD, M), maximal feasible signal (Rmax), and chi^2 were recorded. The results for complement C3b, C3c, and C3 are listed in Table 22, Table 23, and Table 24, respectively. […] The estimated IC50 of C3i and its fusion proteins and their binding affinity (KD) against C3b, C3c, and C3 are shown in Table 25. When KD values were plotted against estimated IC50, they correlated well with each other for C3b (FIG. 23A) and C3c (FIG. 23B) and, in most cases, for C3 (FIG. 23C).

C3c = biological target: T1, C3c (Homo sapiens, UniProt P01024); test: Binding affinity to C3c by Biacore
T1 construct: C3, C3b and C3c proteins were immobilized in flow cell 2 or 4

C3 = C3 (Homo sapiens, UniProt P01024); test: Binding affinity to C3 by Biacore
Description: as §1, §2

rabbit erythrocytes = test: Hemolysis inhibition assay with rabbit erythrocytes and normal human serum; assay type: cell-based
Description: In parallel, serum dose causing approximately 70% hemolysis was determined for new normal human serum (NHS) before the purified proteins were used for a hemolysis inhibition assay. Various doses of NHS were mixed with rabbit erythrocytes (Cat. B300, Complement Technology) in the presence of 0.1 M Mg2+ EGTA (Cat. B106, Complement Technology). Background lysis was measured using GVBE (GVBo plus 20 mM EDTA, pH 7.4), and maximum lysis was measured by lysing all the cells with Maximum Lysis Buffer (GVBo+0.2% NP40). After all the samples were mixed on ice, they were transferred to 37° C. water bath. The samples were vortexed every 5 minutes and incubated for 30 minutes in total. 1 mL of cold GVBE was added into each tube to stop the reaction. After samples were centrifuged for 3 min at approximately 1000× g to pellet cells, the supernatant was transferred to a cuvette and read at 412 nm in SpectaMax iD3 microplate reader. Each reading was normalized to the background, divided by Max Lysis minus background, and multiplied by 100, which equaled % of Max Lysis. Using the GraphPad Prism software, the % of Max Lysis was plotted against microliters of NHS, and the dose of NHS causing 50% and 70% hemolysis was respectively determined.
Using the NHS dose causing 70% hemolysis, the purified mutant proteins were utilized for a hemolysis inhibition assay. All mutant proteins were 2× serially diluted and mixed with the rabbit erythrocytes in the presence of NHS, resulting in the final concentration of […], 4.10, 2.05, and 1.02 μM of each mutant protein. The benchmark, CP40 peptide, was also used in this study. After each reading was subtracted from the background, it was divided by 70% hemolysis minus background and multiplied by 100. The value was considered as % of hemolysis inhibition. The percentage of hemolysis inhibition was plotted against the molecular concentration of mutant proteins by GraphPad Prism software and IC50 value was estimated based on the data plotting.

NIH-3T3 cells = test: cGMP production in NIH-3T3 cells; assay type: cell-based

C3b, sequence (P01024 23-667 limits assumed): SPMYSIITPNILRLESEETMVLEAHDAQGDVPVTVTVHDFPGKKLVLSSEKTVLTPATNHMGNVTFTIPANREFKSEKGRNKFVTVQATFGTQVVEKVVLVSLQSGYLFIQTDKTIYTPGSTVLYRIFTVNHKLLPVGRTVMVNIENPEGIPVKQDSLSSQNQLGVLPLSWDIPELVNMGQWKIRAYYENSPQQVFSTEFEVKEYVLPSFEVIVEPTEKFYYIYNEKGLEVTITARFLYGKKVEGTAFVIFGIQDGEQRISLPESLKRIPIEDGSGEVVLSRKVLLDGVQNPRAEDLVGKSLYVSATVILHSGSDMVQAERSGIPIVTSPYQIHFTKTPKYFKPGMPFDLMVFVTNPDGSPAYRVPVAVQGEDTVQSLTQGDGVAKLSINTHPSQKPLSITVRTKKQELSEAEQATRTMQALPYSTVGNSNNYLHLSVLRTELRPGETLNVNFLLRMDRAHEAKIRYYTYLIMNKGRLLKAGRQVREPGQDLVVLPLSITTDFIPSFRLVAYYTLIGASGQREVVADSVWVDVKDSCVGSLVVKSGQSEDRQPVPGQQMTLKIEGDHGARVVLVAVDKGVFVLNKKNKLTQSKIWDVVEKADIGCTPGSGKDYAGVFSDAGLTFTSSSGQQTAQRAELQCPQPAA
C3b, sequence (P01024 749-1663 partner limits assumed): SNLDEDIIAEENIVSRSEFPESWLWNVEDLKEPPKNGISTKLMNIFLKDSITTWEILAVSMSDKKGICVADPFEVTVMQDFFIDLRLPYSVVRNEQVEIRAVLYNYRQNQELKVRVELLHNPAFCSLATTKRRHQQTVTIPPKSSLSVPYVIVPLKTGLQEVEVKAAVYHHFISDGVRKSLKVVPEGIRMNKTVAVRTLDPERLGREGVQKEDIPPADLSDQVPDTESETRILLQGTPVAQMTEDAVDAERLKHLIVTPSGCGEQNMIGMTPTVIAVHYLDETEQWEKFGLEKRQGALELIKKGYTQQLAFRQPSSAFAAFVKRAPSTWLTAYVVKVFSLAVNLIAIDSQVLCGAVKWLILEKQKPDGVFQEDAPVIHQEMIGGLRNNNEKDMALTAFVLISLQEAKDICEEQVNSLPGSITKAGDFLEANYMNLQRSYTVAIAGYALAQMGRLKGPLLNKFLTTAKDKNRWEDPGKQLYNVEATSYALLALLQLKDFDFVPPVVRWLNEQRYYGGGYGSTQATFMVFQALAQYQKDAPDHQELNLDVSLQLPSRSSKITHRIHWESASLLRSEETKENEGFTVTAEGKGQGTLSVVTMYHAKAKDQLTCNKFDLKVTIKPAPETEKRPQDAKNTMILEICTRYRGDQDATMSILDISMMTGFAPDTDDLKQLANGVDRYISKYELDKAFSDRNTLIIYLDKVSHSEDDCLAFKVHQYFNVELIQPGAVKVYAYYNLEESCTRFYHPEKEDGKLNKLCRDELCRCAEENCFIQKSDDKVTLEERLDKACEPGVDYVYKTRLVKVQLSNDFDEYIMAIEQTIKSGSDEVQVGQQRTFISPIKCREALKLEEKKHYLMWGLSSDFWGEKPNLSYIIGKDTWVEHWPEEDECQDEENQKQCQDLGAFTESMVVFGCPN
T1 sequence (P01024 23-667 limits assumed): as the sequence (P01024 23-667 limits assumed) above
T1 sequence (P01024 749-954 partner limits assumed): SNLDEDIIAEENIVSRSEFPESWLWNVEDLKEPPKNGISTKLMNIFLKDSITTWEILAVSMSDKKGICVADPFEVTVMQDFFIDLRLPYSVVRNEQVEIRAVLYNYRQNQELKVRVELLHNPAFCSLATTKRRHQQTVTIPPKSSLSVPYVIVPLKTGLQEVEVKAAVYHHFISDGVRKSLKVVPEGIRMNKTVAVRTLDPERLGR
T1 sequence (P01024 1321-1663 partner limits assumed): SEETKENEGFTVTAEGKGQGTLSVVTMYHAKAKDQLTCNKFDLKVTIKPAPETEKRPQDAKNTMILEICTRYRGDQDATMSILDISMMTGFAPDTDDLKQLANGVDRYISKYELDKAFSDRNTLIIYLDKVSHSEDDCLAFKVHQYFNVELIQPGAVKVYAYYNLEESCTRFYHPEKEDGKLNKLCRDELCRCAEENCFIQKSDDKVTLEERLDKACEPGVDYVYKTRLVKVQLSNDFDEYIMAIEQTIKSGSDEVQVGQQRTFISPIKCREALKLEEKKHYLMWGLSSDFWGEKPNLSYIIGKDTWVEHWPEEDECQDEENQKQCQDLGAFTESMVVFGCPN
C3, sequence (P01024 23-1663): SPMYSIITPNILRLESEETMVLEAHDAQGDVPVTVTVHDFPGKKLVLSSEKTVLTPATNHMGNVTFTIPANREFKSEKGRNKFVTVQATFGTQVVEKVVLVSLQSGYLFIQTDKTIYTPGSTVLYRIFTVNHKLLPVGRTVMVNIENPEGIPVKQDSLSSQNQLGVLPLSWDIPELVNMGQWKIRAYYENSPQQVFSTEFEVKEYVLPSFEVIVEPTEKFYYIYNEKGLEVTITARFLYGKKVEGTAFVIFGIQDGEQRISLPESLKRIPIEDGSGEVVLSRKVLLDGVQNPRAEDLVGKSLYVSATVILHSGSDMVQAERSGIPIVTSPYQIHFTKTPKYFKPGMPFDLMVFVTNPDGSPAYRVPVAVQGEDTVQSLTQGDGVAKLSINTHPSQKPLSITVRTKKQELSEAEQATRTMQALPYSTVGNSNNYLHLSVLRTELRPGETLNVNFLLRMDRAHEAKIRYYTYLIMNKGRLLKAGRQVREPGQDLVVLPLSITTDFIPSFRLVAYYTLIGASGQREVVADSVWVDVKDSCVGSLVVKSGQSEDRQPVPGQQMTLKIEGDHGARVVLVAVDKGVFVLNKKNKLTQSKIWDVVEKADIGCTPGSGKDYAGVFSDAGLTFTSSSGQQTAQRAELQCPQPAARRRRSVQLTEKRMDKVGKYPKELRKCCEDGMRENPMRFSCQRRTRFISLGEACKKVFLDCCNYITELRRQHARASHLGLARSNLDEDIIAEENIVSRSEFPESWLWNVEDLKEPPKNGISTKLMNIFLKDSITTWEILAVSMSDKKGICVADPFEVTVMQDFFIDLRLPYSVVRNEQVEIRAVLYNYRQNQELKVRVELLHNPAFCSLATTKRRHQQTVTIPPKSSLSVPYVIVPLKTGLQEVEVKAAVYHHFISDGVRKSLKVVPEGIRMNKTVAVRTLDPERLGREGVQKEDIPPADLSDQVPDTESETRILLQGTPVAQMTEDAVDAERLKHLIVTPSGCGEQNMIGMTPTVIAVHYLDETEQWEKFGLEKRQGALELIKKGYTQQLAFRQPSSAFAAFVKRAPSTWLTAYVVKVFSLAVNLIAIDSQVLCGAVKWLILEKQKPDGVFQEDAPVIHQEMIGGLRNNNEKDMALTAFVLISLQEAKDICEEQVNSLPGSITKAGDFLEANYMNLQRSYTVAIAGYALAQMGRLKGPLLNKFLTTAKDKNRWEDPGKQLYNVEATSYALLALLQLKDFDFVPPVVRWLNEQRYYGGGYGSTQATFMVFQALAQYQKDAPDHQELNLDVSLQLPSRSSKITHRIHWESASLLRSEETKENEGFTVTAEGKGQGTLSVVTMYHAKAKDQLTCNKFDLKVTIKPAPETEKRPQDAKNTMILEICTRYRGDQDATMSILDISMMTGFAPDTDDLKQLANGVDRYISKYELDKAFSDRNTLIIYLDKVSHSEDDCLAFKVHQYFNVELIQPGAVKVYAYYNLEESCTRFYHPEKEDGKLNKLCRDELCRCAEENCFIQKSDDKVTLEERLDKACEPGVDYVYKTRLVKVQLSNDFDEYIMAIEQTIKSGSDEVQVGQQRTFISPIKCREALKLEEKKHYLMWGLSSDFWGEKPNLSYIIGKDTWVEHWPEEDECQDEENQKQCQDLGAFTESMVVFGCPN

## CC[C@H](C)[C@H](NC(=O)[C@H](N)Cc1ccc(O)cc1)C(=O)N[C@H]1CSSC[C@@H](C(=O)N(C)[C@H](C(N)=O)[C@@H](C)CC)NC(=O)[C@H](CCCNC(=N)N)NC(=O)[C@H](Cc2c[nH]cn2)NC(=O)[C@H](C)NC(=O)CN(C)C(=O)[C@H](Cc2c[nH]c3ccccc23)NC(=O)[C@H](CC(=O)O)NC(=O)[C@H](CCC(N)=O)NC(=O)[C@H](Cc2cn(C)c3ccccc23)NC(=O)[C@H](C(C)C)NC1=O [CP40]
Hep1c1c7 cells
  cell lysis inhibition: marginal inhibition
C3b; Affinity to C3b KD, C3b, Biacore, Table 25
  Kd: 0.32 nM
C3b; C3b immobilized
  Rmax (maximal feasible signal): 3.18
C3b; C3b immobilized, fit
  Chi^2: 0.12
C3b; KD, C3b immobilized, 1:1 (Langmuir) binding
  Kd: 0.324 nM
C3c
  Kd: 0.509 nM
C3c; chi^2 of fit, C3c, Biacore
  Chi^2: 0.05
C3c; maximal feasible signal, C3c, Biacore
  Rmax: 4.65
C3; Affinity to C3 KD, Table 25
  Kd: 0.63 nM
C3; KD, equilibrium dissociation constant, room temperature, pH 7.4
  Kd: 0.629 nM
C3; chi^2 of fit
  Chi^2: 0.10
C3; maximal feasible signal
  Rmax: 25.70
Rabbit erythrocytes; NHS dose causing 70% hemolysis
  Estimated IC50 of hemolysis inhibition: 780 nM
Rabbit erythrocytes; change of estimated IC50 relative to CP40
  Bioactivity IC50 Change: 1 fold
Rabbit erythrocytes; estimated IC50, read-out: Bioactivity IC50
  IC50: 780 nM
NIH-3T3 cells
  cGMP production: not
